Data set [1] deals with HCT-116. The experiment in a line: Inhibition of Wnt/beta-Catenin signaling in human HCT-116 cells assessed as decrease in total beta-catenin levels at 10 uM by Western blot analysis. Format: cell-based. (In general: A western blot detects proteins with antibodies after separation by electrophoresis.)
Data set [2] has as its system HCT-116. The experiment in a line: Inhibition of Wnt/beta-Catenin signaling in human HCT-116 cells assessed as increase in axin2 levels at 10 uM by Western blot analysis. Format: cell-based.
Data set [3] deals with HCT-116. As to the kind of experiment: Induction of apoptosis in human HCT-116 cells assessed as viable cells at 5 uM incubated for 3 days by annexinV-FITC/propidium iodide staining based flow cytometry (reference value: 60.0 %). Particulars: Homo sapiens, HCT-116, 72 h, time 3 day, read-out: Activity. Format: functional. A general note: Flow cytometry measures light scatter and fluorescence of single cells or particles in a stream.

Data set [4] has as its target T1, Protein mono-ADP-ribosyltransferase TIPARP (Homo sapiens, UniProt Q7Z3E1).
T1 sequence (Q7Z3E1 whole entry): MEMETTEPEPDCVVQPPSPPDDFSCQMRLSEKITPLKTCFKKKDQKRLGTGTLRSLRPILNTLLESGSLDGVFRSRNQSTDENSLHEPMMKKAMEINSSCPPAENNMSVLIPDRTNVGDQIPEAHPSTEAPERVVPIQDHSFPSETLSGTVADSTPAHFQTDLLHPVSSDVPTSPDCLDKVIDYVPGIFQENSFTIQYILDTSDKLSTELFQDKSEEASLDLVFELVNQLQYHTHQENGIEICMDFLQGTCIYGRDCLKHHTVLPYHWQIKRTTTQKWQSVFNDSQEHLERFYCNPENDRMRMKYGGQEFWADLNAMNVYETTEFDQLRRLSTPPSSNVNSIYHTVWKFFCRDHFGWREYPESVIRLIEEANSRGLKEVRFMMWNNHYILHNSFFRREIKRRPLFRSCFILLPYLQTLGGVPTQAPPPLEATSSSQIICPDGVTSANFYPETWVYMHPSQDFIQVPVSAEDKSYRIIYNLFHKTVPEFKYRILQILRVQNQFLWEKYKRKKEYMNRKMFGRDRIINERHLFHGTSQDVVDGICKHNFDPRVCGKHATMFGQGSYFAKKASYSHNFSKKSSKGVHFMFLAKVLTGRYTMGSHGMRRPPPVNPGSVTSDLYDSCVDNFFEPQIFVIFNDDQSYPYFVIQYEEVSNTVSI
As to the kind of experiment: Inhibition of PARP-7 (unknown origin).

For data set [5], the target named is T2, Poly [ADP-ribose] polymerase tankyrase-1 (Homo sapiens) (UniProt O95271).
T2 sequence (whole entry): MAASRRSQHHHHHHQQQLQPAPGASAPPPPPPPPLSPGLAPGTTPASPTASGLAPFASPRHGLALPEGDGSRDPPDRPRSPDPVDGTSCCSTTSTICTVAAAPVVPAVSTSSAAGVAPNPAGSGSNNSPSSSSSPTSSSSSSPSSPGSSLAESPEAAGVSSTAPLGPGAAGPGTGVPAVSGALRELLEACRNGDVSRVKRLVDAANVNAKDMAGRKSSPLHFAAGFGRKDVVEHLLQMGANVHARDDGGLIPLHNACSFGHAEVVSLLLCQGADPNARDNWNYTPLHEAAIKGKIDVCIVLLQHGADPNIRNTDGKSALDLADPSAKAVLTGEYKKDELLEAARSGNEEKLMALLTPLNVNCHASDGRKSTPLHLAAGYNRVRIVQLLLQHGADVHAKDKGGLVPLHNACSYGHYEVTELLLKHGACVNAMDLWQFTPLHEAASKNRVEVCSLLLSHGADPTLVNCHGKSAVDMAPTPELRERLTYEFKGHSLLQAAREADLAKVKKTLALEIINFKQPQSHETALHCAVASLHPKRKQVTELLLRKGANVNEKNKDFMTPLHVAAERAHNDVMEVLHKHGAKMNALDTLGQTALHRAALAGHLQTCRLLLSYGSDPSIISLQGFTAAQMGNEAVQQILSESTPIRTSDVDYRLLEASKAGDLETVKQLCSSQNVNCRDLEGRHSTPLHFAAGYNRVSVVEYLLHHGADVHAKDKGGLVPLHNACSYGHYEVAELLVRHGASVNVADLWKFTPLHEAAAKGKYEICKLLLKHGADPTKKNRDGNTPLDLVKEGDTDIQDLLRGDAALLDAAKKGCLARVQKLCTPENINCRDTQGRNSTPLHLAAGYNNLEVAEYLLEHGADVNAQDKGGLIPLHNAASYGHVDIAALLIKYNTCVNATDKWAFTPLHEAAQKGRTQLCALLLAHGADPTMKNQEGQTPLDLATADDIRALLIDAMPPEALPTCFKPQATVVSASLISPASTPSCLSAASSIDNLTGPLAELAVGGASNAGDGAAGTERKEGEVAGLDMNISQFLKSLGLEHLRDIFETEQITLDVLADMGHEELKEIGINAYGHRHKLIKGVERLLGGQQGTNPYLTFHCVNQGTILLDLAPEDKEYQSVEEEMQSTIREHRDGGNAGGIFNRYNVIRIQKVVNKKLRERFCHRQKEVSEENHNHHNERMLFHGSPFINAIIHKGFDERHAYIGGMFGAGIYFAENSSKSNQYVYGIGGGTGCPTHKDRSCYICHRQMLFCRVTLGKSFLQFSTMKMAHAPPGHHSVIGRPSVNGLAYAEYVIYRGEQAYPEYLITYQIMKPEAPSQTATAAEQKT
Particulars: dose 10.0 nM, time 1.0 hrs.

For data set [6], the system named is HCT-116. As to the kind of experiment: Induction of cell cycle arrest in human HCT-116 cells assessed as G2/M phase cells at 5 uM incubated for 3 days by propidium iodide staining based flow cytometry (reference value: 68.35 %). The conditions noted are these: time 3 day. It is filed as functional.
For data set [7], the target named is Poly [ADP-ribose] polymerase 1 (Homo sapiens, UniProt P09874). The conditions noted are these: dose 10.0 nM, time 45.0 min.
Chain of Poly [ADP-ribose] polymerase 1 (P09874 whole entry): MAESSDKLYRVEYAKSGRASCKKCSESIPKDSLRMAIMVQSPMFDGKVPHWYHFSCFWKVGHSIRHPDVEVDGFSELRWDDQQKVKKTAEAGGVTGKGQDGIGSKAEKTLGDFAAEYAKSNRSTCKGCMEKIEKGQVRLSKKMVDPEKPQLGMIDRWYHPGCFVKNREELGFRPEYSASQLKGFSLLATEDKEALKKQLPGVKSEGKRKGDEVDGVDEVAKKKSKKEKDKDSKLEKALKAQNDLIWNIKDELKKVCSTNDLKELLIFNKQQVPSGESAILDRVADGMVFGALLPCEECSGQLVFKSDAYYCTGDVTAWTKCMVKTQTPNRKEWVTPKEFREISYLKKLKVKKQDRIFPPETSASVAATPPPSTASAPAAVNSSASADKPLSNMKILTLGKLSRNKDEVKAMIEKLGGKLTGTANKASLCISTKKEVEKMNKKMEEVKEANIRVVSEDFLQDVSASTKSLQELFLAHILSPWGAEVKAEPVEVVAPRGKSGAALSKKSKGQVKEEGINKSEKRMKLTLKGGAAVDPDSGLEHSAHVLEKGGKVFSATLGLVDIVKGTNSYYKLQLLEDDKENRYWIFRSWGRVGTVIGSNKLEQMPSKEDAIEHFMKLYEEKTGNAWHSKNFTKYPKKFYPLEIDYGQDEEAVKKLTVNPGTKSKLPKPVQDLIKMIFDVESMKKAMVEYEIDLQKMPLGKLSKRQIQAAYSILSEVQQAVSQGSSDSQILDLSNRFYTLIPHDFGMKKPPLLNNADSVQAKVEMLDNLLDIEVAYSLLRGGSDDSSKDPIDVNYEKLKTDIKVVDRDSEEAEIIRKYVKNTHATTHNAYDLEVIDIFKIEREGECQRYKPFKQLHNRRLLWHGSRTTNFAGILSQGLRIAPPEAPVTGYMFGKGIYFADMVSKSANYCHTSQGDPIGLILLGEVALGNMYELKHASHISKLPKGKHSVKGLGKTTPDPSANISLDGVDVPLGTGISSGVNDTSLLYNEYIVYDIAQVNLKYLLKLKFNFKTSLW
For data set [8], the system named is HCT-116. As to the kind of experiment: Induction of DNA damage in human HCT-116 cells assessed as increase in nuclear gammaH2AX foci incubated for 72 hrs by DAPI staining based immunofluorescence analysis. It is filed as functional, cell-based. Particulars: dose 1.0 µM.
Data set [9] has as its system HCT-116. As to the kind of experiment: Inhibition of Wnt/beta-Catenin signaling in human HCT-116 cells assessed as decrease in cyclin D1 levels at 10 uM by Western blot analysis. Format: cell-based.
Data set [10] has as its target Poly [ADP-ribose] polymerase 2 (Homo sapiens, UniProt Q9UGN5). As to the kind of experiment: Inhibition of PAPR-2 (unknown origin).
Data set [11] has as its system HCT-116. As to the kind of experiment: Antiproliferative activity against human HCT-116 cells assessed as inhibition of cell growth incubated for 7 days by MTT assay. Format: functional, cell-based. Particulars: HCT-116, 168 h. (Tetrazolium dyes change colour on reduction, which living cells bring about.)
Data set [12] can be described thus: Toxicity in […] assessed as morphological changes in colon at 500 mg/kg, ip by H&E staining based histopathological analysis. It is filed as organism-based. Particulars: in vivo.
Data set [13] concerns HCT-116. As to the kind of experiment: Downregulation of BRCA1 protein expression in human HCT-116 cells at 1 uM by Western blot analysis. Format: functional, cell-based.
For data set [14], the system named is HCT-116. The experiment in a line: Induction of apoptosis in human HCT-116 cells assessed as viable cells at 1 uM incubated for 3 days by annexinV-FITC/propidium iodide staining based flow cytometry (reference value: 60.0 %). It is filed as functional. Particulars: HCT-116, 72 h, time 3 day, read-out: Activity.
In data set [15] the test system is HCT-116. The experiment in a line: Induction of apoptosis in human HCT-116 cells assessed as early apoptotic cells at 5 uM incubated for 3 days by annexinV-FITC/propidium iodide staining based flow cytometry (reference value: 7.67 %). Format: functional. Particulars: time 3 day.

This note sets out measurements from ChEMBL document CHEMBL5120857, “Rational design, synthesis and biological evaluation of dual PARP-1/2 and TNKS1/2 inhibitors for cancer therapy” (Eur J Med Chem, 2022).

In general, inhibition refers to the change of the read-out against control, counted positive when it falls. Usually IC50 stands for the midpoint of a concentration-inhibition curve.

Calls of active or inactive are those of the source. No cut-off for these calls is given here.

Chain of Poly [ADP-ribose] polymerase 2 (Q9UGN5 whole entry): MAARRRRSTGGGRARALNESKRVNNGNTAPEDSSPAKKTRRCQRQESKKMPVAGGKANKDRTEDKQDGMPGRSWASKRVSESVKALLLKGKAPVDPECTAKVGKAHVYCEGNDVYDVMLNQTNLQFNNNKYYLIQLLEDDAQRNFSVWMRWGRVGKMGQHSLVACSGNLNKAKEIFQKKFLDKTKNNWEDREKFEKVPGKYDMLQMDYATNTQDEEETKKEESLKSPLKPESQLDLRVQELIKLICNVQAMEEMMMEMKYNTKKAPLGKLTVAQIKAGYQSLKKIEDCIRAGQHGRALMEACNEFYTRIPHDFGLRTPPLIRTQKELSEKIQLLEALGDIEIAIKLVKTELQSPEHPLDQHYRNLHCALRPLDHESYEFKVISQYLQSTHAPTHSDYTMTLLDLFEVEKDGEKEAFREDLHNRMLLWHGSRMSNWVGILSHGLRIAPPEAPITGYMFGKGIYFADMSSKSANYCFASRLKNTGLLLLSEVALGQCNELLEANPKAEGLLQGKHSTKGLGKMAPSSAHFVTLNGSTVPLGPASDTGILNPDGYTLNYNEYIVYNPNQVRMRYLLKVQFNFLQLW

As to `COc1ccc(NC(=O)c2ccc(NC(=O)N3CCN(C(=O)c4cc(Cc5n[nH]c(=O)c6ccccc56)ccc4F)CC3)cc2)cc1`, the inhibition result in the data set with HCT-116 [1], with HCT-116 [2] and in the data set on HCT-116 [9] was “Active” throughout. Further, in the data set with HCT-116 [3], the viability at 5 µM was found to be 45.1%. The figures for the concentration for half-maximal inhibition (IC50) (in data set [4]; in data set [10]; with HCT-116 [11]) were 0.015 µM, 0.0012 µM and 0.75 µM, respectively. The figures for the inhibition in data set [5] and in data set [7] were 28% and 97%, respectively. Further, the Activity in the data set on HCT-116 [6] is 54.6%; in [12], “Non-Toxic”; in the data set with HCT-116 [15], 6.61%. Also, the result in the data set with HCT-116 [8] and in the data set with HCT-116 [13] was Active. Besides, the viability at 1 µM with HCT-116 [14] amounted to 71.3%.
